Source: patent US4009273A, “Substituted 10,11-dihydro-5,10-imino-[5H] dibenzo (a,d)-cycloheptene” (priority 1972, dated 1977)
Values joined by “and” are separate entries in the source; they are usually repeats but may differ in a detail not shown here. Equal entries are not always repeated.

Experiments:
[1] = tested on: amphetamine deaths; assay: Amphetamine toxicity in mice; type: in vivo, mice (female); details: mortality at 4 h
Procedure: The test was effected on group of 10 female mice weighing between 18 and 22 g kept at 27° C for the duration of the test. The test products were intraperitoneally administered in different doses in a volume of 0.01 ml /g of mouse. One hour later, the mice received an injection of 15 mg/kg of a solution of 1.5 mg of amphetamine per ml of physiological serum. The mortality 4 hours after the amphetamine injection was determined and the results were expressed as a ratio of number of dead animals to number of starting animals.

[2] = tested on: pentamethylenetetrazol convulsions; assay: Anticonvulsant effect (pentamethylenetetrazol perfusion); type: in vivo, mice (female); details: 1 h before perfusion
Procedure: The anticonvulsant activity of the compounds was determined on groups of 10 female mice with intraperitoneal administration of the test compounds in acid solution at different doses and the control group received only the solvent. One hour after the injection, the mice were perfused with a solution of pentamethylenetetrazol in physiological serum at a concentration of 3 mg/ml. The perfusion was intraveinous at a rate of 1 ml per minute and in the course of the perfusion, the progress of introxication was characterized by the following 3 criteria:
a. Threshold of convulsant effect (myoclonia of the ears)
b. Crisis of clonic convulsions
c. Tonic convulsion with apnea and generally followed by death.

[3] = tested on: DOPA; assay: Potentialization of DOPA; type: in vivo, mice (male); details: 1 h before 50 mg/kg DOPA
Procedure: In this test, DOPA [racemic β-(3,4-dihydroxyphenyl)-alanine] was administered to mice pretreated with 1-isonicotinoyl-2-isopropyl-hydrazine18 hours before the test which product caused the following symptoms: hypertonicity, agitation, crying, aggressiveness, salivation and exophthalmia. The administration of an antidepressant one hour before the DOPA injection potentializes the intensity of the effects.
Male mice weighing between 18 to 22 g received intraperitoneally 50 mg/kg of 1-isonicotinoyl-2-isopropyl-hydrazine and 18 hours later the test product intraperitoneally in aqueous solution in increasing doses and 1 hour later received an intraperitoneal injection of 50 mg/kg of DOPA. The different effects were evaluated 15 and 30 minutes after the DOPA injection and each symptom was evaluated for each animal on a scale from 0 to 3 and the evaluations for each dose was totaled. The totals are reported in Table III as a percent of the total of control animals.

[4] = Acute toxicity; details: mouse, in vivo, ip, Swiss mice, observed for a week
Procedure: The acute toxicity was determined on groups of Swiss mice weighing 18 to 22 g and the test products were administered intraperitoneally in increasing doses and the animals were kept under observation for a week.

[5] = tested on: amytal sleeping time; assay: Potentialization of sleeping time (amytal); type: in vivo, mice (female); details: 1 h before 80 mg/kg amytal i.v.
Procedure: The potentialization of sleeping time was determined with a test using amytal [5-ethyl-5-isoamyl-barbituric acid] in which groups of female mice weighing between 18 and 22 g were kept at 25° C for the duration of the test. The test products were administered intraperitoneally at different doses one hour before intraveinous injection of 80 mg/kg of amytal and the sleeping time was noted which is the time while the reflux of straightening in the mice was negative.

[6] = 5 mg/Kg i.p., 1 h before 15 mg/kg amphetamine
[7] = 10 mg/Kg i.p., 1 h before 15 mg/kg amphetamine
[8] = 20 mg/Kg i.p., 1 h before 15 mg/kg amphetamine
[9] = head prints only "mg/Kg" (dose figure missing), i.p.

Row | SMILES | ratio of number of dead animals to number of starting animals [1, 6] | ratio of number of dead animals to number of starting animals [1, 7] | ratio of number of dead animals to number of starting animals [1, 8] | Dose of pentamethylenetetrazol, Clonic Crisis ([2]; 1 mg/Kg i.p.) [mg/kg] | Dose of pentamethylenetetrazol, Myoclonia ([2]; 1 mg/Kg i.p.) [mg/kg] | Dose of pentamethylenetetrazol, Tonic Crisis ([2]; 1 mg/Kg i.p.) [mg/kg] | Dose of pentamethylenetetrazol, Clonic Crisis ([2]; 2 mg/Kg i.p.) [mg/kg] | Dose of pentamethylenetetrazol, Myoclonia ([2]; 2 mg/Kg i.p.) [mg/kg] | Dose of pentamethylenetetrazol, Tonic Crisis ([2]; 2 mg/Kg i.p.) [mg/kg] | Dose of pentamethylenetetrazol, Clonic Crisis ([2]; 5 mg/Kg i.p.) [mg/kg] | Dose of pentamethylenetetrazol, Myoclonia ([2]; 5 mg/Kg i.p.) [mg/kg] | Dose of pentamethylenetetrazol, Tonic Crisis ([2]; 5 mg/Kg i.p.) [mg/kg] | total symptom score as percent of the total of control animals ([3]; 1 mg/Kg i.p.) [%] | total symptom score as percent of the total of control animals ([3]; 2 mg/Kg i.p.) [%] | total symptom score as percent of the total of control animals ([3]; 10 mg/Kg i.p.) [%] | LD50 at 168 h [4] [mg/kg] | ratio of number of dead animals to number of starting animals [1, 9] | average sleeping time ([5]; 5 mg/Kg i.p.) [min] | average sleeping time ([5]; 10 mg/Kg i.p.) [min] | average sleeping time ([5]; 20 mg/Kg i.p.) [min] | further results
1 | OCCN1C2Cc3ccccc3C1c1ccccc12 (stereo not drawn) [Example 6, 12-(2'-hydroxyethyl)-10,11-dihydro-5,10-imino-[5H]-dibenzo (a,d) cycloheptene dl] | 3/10 | 9/10 and 3/10 | 0/10 | 45.7 | 40.6 | 144.2 | 43.5 | 38.6 | 104.3 | 45.5 | 49.3 | 204.6 | 138 | 155 | 140 | 350 |  |  |  |  | Dose of pentamethylenetetrazol, Clonic Crisis ([2]; 0.5 mg/Kg i.p.): 42.9 mg/kg; Dose of pentamethylenetetrazol, Myoclonia ([2]; 0.5 mg/Kg i.p.): 38.2 mg/kg; Dose of pentamethylenetetrazol, Tonic Crisis ([2]; 0.5 mg/Kg i.p.): 129.0 mg/kg
2 | CC(=O)CN1C2Cc3ccccc3C1c1ccccc12 (stereo not drawn) [Example 7, 12-acetonyl-10,11-dihydro-5,10-imino-[5H]-dibenzo (a,d) cycloheptene dl] | 2/10 | 0/10 | 0/10 | 52.7 | 47.7 | 172.5 | 62.6 | 57.7 | 172.5 | 112.5 | 107.4 | 238.9 | 114 | 135 | 173 | 350 | 0/10 | 31.3 | 51.2 | 82.3 | Dose of pentamethylenetetrazol, Clonic Crisis ([2]; 0.5 mg/Kg i.p.): 53.3 mg/kg; Dose of pentamethylenetetrazol, Myoclonia ([2]; 0.5 mg/Kg i.p.): 48.6 mg/kg; Dose of pentamethylenetetrazol, Tonic Crisis ([2]; 0.5 mg/Kg i.p.): 119.2 mg/kg; total symptom score as percent of the total of control animals ([3]; 5 mg/Kg i.p.): 138%; average sleeping time ([5]; 50 mg/Kg i.p.): 107.5 min
3 | CN(C)CC(=O)N1C2Cc3ccccc3C1c1ccccc12 (stereo not drawn) [Example 14, 12-dimethylaminoacetyl-10,11-dihydro-5,10-imino-[5H]-dibenzo (a,d) cycloheptene dl] |  |  |  |  |  |  |  |  |  |  |  |  |  |  | 117 | 150 |  |  |  |  | total symptom score as percent of the total of control animals ([3]; 20 mg/Kg i.p.): 160%; total symptom score as percent of the total of control animals ([3]; 50 mg/Kg i.p.): 196%
4 | CCN1C2Cc3ccccc3C1c1ccccc12 (stereo not drawn) [Example 21, 12-ethyl-10,11-dihydro-5,10-imino-[5H]-dibenzo (a,d) cycloheptene dl] | 10/10 | 6/10 | 0/10 | 48.3 | 42.9 | 168.2 | 47.7 | 42.3 | 206.2 | 57.0 | 49.6 | 238.1 | 187 | 175 |  |  | 0/10 | 58.1 | 71.5 |  | total symptom score as percent of the total of control animals ([3]; 5 mg/Kg i.p.): 181%; average sleeping time ([5]; 1 mg/Kg i.p.): 32.1 min; average sleeping time ([5]; 2 mg/Kg i.p.): 39.6 min
5 | CN1C2Cc3ccccc3C1c1ccc(Cl)cc12 (stereo not drawn) [Example 26, 8-chloro-12-methyl-10,11-dihydro-5,10-imino-[5H]-dibenzo (a,d) cycloheptene dl] | 10/10 | 10/10 | 10/10 |  |  |  |  |  |  | 50.8 | 43.9 | 128 |  |  |  | ~350 | 1/9 | 22.6 | 27.4 | 36.0 | Dose of pentamethylenetetrazol, Clonic Crisis ([2]; 10 mg/Kg i.p.): 52.0 mg/kg; Dose of pentamethylenetetrazol, Myoclonia ([2]; 10 mg/Kg i.p.): 44.1 mg/kg; Dose of pentamethylenetetrazol, Tonic Crisis ([2]; 10 mg/Kg i.p.): 174.7 mg/kg; Dose of pentamethylenetetrazol, Clonic Crisis ([2]; 20 mg/Kg i.p.): 56.4 mg/kg; Dose of pentamethylenetetrazol, Myoclonia ([2]; 20 mg/Kg i.p.): 49.7 mg/kg; Dose of pentamethylenetetrazol, Tonic Crisis ([2]; 20 mg/Kg i.p.): 230.2 mg/kg; Dose of pentamethylenetetrazol, Clonic Crisis ([2]; 50 mg/Kg i.p.): 66.7 mg/kg; Dose of pentamethylenetetrazol, Myoclonia ([2]; 50 mg/Kg i.p.): 52.6 mg/kg; Dose of pentamethylenetetrazol, Tonic Crisis ([2]; 50 mg/Kg i.p.): 274.2 mg/kg; average sleeping time ([5]; 50 mg/Kg i.p.): 94.5 min
6 | ClCCN1C2Cc3ccccc3C1c1ccccc12 (stereo not drawn) [Example 27, 12-(2'-chloroethyl)-10,11-dihydro-5,10-imino-[5H]-dibenzo (a,d) cycloheptene dl] | 10/10 | 8/10 | 2/10 |  |  |  | 52.9 | 45.9 | 163.2 | 56.7 | 51.5 | 229.8 |  |  |  | ~150 |  | 42.2 | 44.8 | 83.0 | Dose of pentamethylenetetrazol, Clonic Crisis ([2]; 10 mg/Kg i.p.): 62.1 mg/kg; Dose of pentamethylenetetrazol, Myoclonia ([2]; 10 mg/Kg i.p.): 57 mg/kg; Dose of pentamethylenetetrazol, Tonic Crisis ([2]; 10 mg/Kg i.p.): 258.2 mg/kg; average sleeping time ([5]; 2 mg/Kg i.p.): 21.7 min
